Results as given in patent publication US20250064990A1, “METHODS OF SCREENING FOR VMAT2 INHIBITORS” (Neurocrine Biosciences, Inc., priority 2021, published 2025).
“And” between values parts separate entries of the source, which are not always exact repeats. Identical values can stand only once. Like-named read-outs stand apart in the source and are kept apart here. Blank lines part the entries; values can stand above or below the compound they belong to.

How the values were obtained:
[1] = molecular target: VMAT2 (Macaca fascicularis, UniProt A0A2K5UVB8); assay: VMAT2 occupancy in NHP brain after i.v. NBI-98782, [^18F]AV-133 PET; assay type: in vivo, cynomolgus monkeys (Macaca fascicularis); settings: cynomolgus monkey
Source text: A radioligand, [^18F]AV-133, has been used to image and quantify brain VMAT2 in vivo.
Two female non-naïve cynomolgus monkeys (Macaca fascicularis) were used in this study. The animals were judged to be in good health before the start of the study. At study origination, animals A7701 (Tag ID A5028) and A7702 (Tag ID A5029) were 4.45 kg/4 years 11 months and 4.75 kg/3 years 10 months, respectively.
Dynamic data were acquired in the MicroPET Focus-220 camera (Siemens Microsystems, Knoxville, TN). Emission data were collected for 120 min post-injection and reconstructed into a series of 33 frames and all standard corrections were applied: normalization, random, scatter and attenuation (via CT scan). Dynamic brain PET images were transferred and analyzed using the image processing PMOD software package v3.802 (PMOD Technologies, Zurich, Switzerland). The PET images were rigidly aligned to a previously acquired animal's brain T1 MRI and then spatially normalized to a common cynomolgus MRI template for anatomical brain region definition.
Volumes of interest (VOIs) defined in the cynomolgus template space (see e.g., Ballanger et al. Neuroimage, 2013, 77:26-43) were applied to the spatially normalized PET images to compute time-activity curves (TACs, kBq/cm^3) for caudate (0.96 cm^3), putamen (1.34 cm^3) and occipital (8.61 cm^3). TACs and images (averaged between 90-120 min) were presented in Standard Uptake Value (SUV) units (g/mL) normalized by the weight of the animal and the injected dose
Non-invasive Logan graphical analysis (start time of fit, t*=30 min) was used to estimate regional non-displaceable binding potential (BPND) using the TACs in the caudate and putamen, with the cerebellar cortex as the reference TAC. […] Target occupancy was calculated according to the Equation 2-1.
where h is the Hill slope (h=1.0) and C is the mean of observed plasma concentrations during the scanning interval (60 to 180 minutes post-dose).

[2] = NBI-98782 concentration in cynomolgus monkey plasma by LC-MS/MS; assay type: in vivo, cynomolgus monkeys (Macaca fascicularis)
Description: During each scan, whole blood PK samples were collected (in K2 EDTA tubes) at pre-dose (−5 min), and post-dose at 4 (approximately 1 min after completion of bolus), 30, 60 (just prior to [^18F]AV-133 radiopharmaceutical administration), 90, 120, 150, 180 (end of scan) minutes after test article administration. PK samples were approximately 1 mL each (8 mL total, including pre-dose sample).
Plasma samples were processed using liquid-liquid extraction with the additional of a stable isotopic labeled internal standard ^13C-83198. Processed samples were chromatographically separated on a C18 reversed phase column and coupled to a Sciex API 4000 triple quadrupole mass spectrometer for detection.
Quantitation was performed using a weighted 1/×2 linear least squares regression analysis generated from calibration standards prepared on the day of extraction. The liquid-liquid extraction began with the addition of internal standard solution (10.0 μL of approximately 400 ng/mL of [^13C]-radiolabeled [^13C]-NBI-98854 (i.e., [^13C]-valbenazine) and [^13C]-NBI-83198 (a racemic mixture of two dihydrotetrabenazine enantiomers). After adding 50.0 μL of sodium carbonate solution (0.2 M) and 2.00 mL of methyl tert-butyl ether to all samples, the tubes were sealed, vortexed, and centrifuged. Subsequently, the organic layer was transferred to clean tubes and evaporated to dryness. The samples were then reconstituted with 150 μL of reconstitution solution (water/methanol/acetic acid; 80:20:0.2), sealed, vortexed, sonicated and centrifuged. The reconstituted extract was then transferred into a 96-well plate. […] A triple quadrupole mass spectrometer (Sciex API 4000) equipped with TurboIonSpray source was used in the positive ion mode.

[3] = molecular target: T1, VMAT2 (Homo sapiens, UniProt Q05940); settings: Freeby et al., Mol. Imaging Biol. 2016; cited from earlier work
[4] = test system: VMAT2; assay: Estimated VMAT2 target occupancy and clinical observations in cynomolgus monkey; assay type: in vivo; settings: ~30 min to 1 h post-dosing, at estimated 96%-98% VMAT2 target occupancy
Source text: As described below, there were adverse events at these doses, enabling a benchmarking of % TO values that could lead to adverse events.

[5] = test system: synaptic dopamine; assay: Valbenazine effects on the dopamine system, [^11C]-PHNO PET; assay type: in vivo, human; settings: 40-160 mg oral valbenazine, healthy volunteers, interim analysis, eight participants
Source text: By way of example only, in some embodiments, “synaptic dopamine” can be measured non-invasively as follows. Subjects receive an oral dose of a VMAT2 inhibitor before administration of [^11C]-PHNO, with PET imaging occurring around the time of maximal VMAT2 inhibitor plasma concentration. The binding potential relative to the non-displaceable binding (BPND) in the putamen, caudate, and ventral striatum, is used as the primary endpoint. The cerebellum is used as the reference region to estimate the regional BPND. The measured increases in [^11C]-PHNO BPND relative to baseline (ΔBPND) correspond to decreases in synaptic dopamine following VMAT2 inhibitor administration. Other radioligands can be used. Alternatively, in some embodiments, indirect measurements of synaptic dopamine can be achieved via invasive techniques such as methods described in Huang M., et al., Pharmacology, Biochemistry and Behavior 190 (2020) 172872; and Bosche S. L., et al., Frontiers in Neuroscience, November 2021|Volume 15|Article 728092.
Interim imaging and tolerability data in an ongoing study were collected and analyzed in cohorts of 2-4 healthy volunteers. […] Plasma concentrations of valbenazine and (+)-α-dTBZ (dihydrotetrabenazine), the active metabolite of valbenazine, were measured at the start and end of each post-valbenazine PET scan. […]

[6] = Adverse events in healthy volunteers receiving valbenazine; assay type: in vivo, human; settings: 40-160 mg valbenazine
Description: Interim imaging and tolerability data in an ongoing study were collected and analyzed in cohorts of 2-4 healthy volunteers. For each scan, participants received an injection of the D2/D3 dopamine receptor agonist radioligand [^11C](+)4-propyl-3,4,4a,5,6,10b-hexahydro-2H-naphtho[1,2-b][1,4]oxazin-9-ol ([^11C]-PHNO), followed by 90 min of data acquisition using Siemens Biograph PET/CT. For post-valbenazine scans, participants received an oral dose of valbenazine 6-8 hours before the administration of [^11C]-PHNO, with PET imaging occurring around the time of maximal valbenazine plasma concentration. The binding potential relative to the non-displaceable binding (BPND) in the putamen, caudate, and ventral striatum, was used as the primary endpoint. The cerebellum was used as the reference region to estimate the regional BPND. Decreases in synaptic dopamine following valbenazine administration corresponded to an increase in [^11C]-PHNO BPND relative to baseline (ΔBPND). Plasma concentrations of valbenazine and (+)-α-dTBZ (dihydrotetrabenazine), the active metabolite of valbenazine, were measured at the start and end of each post-valbenazine PET scan. The mean plasma (+)-α-dTBZ concentration (Cave) was matched to the ΔBPND for each participant to provide an exposure-response curve.

[7] = molecular target: T1, VMAT2; assay: Estimated VMAT2 target occupancy in humans for valbenazine from NHP PET free EC50 and human PK; assay type: in vivo; parameters: The free EC50 derived from NHP PET was then used to estimate % TO in humans; from tissue; host or cells: human brain in vivo (modelled, not imaged)

T1 sequence (Q05940 whole entry): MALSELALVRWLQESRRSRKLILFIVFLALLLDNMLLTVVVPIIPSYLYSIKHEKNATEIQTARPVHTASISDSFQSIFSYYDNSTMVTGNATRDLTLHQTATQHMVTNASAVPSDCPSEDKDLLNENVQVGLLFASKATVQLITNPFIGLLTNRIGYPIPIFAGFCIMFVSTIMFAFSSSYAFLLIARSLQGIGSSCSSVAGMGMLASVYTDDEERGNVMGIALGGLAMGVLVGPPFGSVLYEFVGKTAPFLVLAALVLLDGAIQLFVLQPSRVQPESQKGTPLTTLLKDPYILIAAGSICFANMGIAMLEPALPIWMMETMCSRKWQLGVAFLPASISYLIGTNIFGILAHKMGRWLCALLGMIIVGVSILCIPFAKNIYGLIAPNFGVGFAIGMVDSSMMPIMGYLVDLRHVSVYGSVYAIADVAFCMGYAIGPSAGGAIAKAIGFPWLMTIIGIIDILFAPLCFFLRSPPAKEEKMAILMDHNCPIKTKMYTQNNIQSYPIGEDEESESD
Chain of VMAT2 (Macaca fascicularis, UniProt A0A2K5UVB8) (A0A2K5UVB8 entry or part of it): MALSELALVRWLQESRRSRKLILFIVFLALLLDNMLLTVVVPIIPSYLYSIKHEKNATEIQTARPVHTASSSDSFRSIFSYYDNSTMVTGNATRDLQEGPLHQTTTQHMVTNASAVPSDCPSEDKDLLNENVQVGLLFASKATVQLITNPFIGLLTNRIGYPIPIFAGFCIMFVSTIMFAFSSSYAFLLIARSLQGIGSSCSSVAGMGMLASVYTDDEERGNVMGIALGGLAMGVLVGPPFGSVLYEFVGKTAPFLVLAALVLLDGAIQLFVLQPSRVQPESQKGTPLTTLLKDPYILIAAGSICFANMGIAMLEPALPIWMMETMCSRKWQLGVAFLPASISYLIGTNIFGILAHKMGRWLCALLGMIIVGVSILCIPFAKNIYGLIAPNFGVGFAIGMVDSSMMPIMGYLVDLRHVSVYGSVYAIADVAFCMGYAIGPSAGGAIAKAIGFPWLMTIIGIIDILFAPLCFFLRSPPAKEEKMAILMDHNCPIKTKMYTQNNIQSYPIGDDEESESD

SMILES: COc1cc2c(cc1OC)[C@H]1C[C@@H](O)[C@H](CC(C)C)CN1CC2 [NBI-98782, (2R, 3R,11bR)-3-isobutyl-9,10-dimethoxy-1,3,4,6,7,11b-hexahydro-2H-pyrido[2,1-a]isoquinolin-2-ol]
- receptor occupancy at 0.04 mg/kg ([1]; iv, read-out: % Occ, animal A7701, Caudate, 0.04 mg/kg): 59.1%
- receptor occupancy at 0.13 mg/kg ([1]; iv, read-out: % Occ, animal A7701, Caudate, 0.13 mg/kg): 67.9%
- receptor occupancy at 0.5 mg/kg ([1]; iv, read-out: % Occ, animal A7701, Caudate, 0.5 mg/kg): 89.4%
- receptor occupancy at 0.04 mg/kg ([1]; iv, read-out: % Occ, animal A7701, Putamen, 0.04 mg/kg): 55.2%
- receptor occupancy at 0.13 mg/kg ([1]; iv, read-out: % Occ, animal A7701, Putamen, 0.13 mg/kg): 70.8%
- receptor occupancy at 0.5 mg/kg ([1]; iv, read-out: % Occ, animal A7701, Putamen, 0.5 mg/kg): 89.6%
- receptor occupancy at 0.016 mg/kg ([1]; iv, read-out: % Occ, animal A7702, Caudate, 0.016 mg/kg): 18.7%
- receptor occupancy at 0.016 mg/kg ([1]; iv, read-out: % Occ, animal A7702, Putamen, 0.016 mg/kg): 18.3%
- receptor occupancy at 0.13 mg/kg ([1]; iv, read-out: Occ, animal A7702, Caudate, 0.13 mg/kg): 77.5%
- receptor occupancy at 0.13 mg/kg ([1]; iv, read-out: Occ, animal A7702, Putamen, 0.13 mg/kg): 79.1%
- receptor occupancy at 0.04 mg/kg ([1]; read-out: Target Occupancy, Mean of Putamen and Caudate, A7701, total mass dose 0.04 mg/kg): 57%
- receptor occupancy at 0.13 mg/kg ([1]; read-out: Target Occupancy, Mean of Putamen and Caudate, A7701, total mass dose 0.13 mg/kg): 69%
- receptor occupancy at 0.5 mg/kg ([1]; read-out: Target Occupancy, Mean of Putamen and Caudate, A7701, total mass dose 0.5 mg/kg): 90%
- receptor occupancy at 0.016 mg/kg ([1]; read-out: Target Occupancy, Mean of Putamen and Caudate, A7702, total mass dose 0.016 mg/kg): 19%
- receptor occupancy at 0.13 mg/kg ([1]; read-out: Target Occupancy, Mean of Putamen and Caudate, A7702, total mass dose 0.13 mg/kg): 78%
- Mean ng/mL NBI-98782 Concentration during PET Scan (60-180 min) ([2]; A7701, total mass dose 0.04 mg/kg i.v.): 2.9 ng/mL
- Mean ng/mL NBI-98782 Concentration during PET Scan (60-180 min) ([2]; A7701, total mass dose 0.5 mg/kg i.v.): 44.5 ng/mL
- Mean ng/mL NBI-98782 Concentration during PET Scan (60-180 min) ([2]; A7702, total mass dose 0.016 mg/kg i.v.): 1.7 ng/mL
- Mean ng/mL NBI-98782 Concentration during PET Scan (60-180 min) ([2]; A7702, total mass dose 0.13 mg/kg i.v.): 14.9 ng/mL

SMILES: COc1cc2c(cc1OCCC[18F])CCN1C[C@@H](CC(C)C)[C@H](O)C[C@H]21 [[^18F]AV-133]
- Test-retest for BPND [3]: 9.4%

- estimated VMAT2 occupancy maintained throughout each 24-hour period ([7]; doses clinically effective in tardive dyskinesia): ≥ 73%
- receptor occupancy at 40 mg ([7]; valbenazine 40 mg once-daily, read-out: estimated target occupancy for Cave): ~80%
SMILES: COc1cc2c(cc1OC)[C@H]1C[C@@H](OC(=O)[C@@H](N)C(C)C)[C@H](CC(C)C)CN1CC2 [valbenazine, (S)-2-amino-3-methyl-butyric acid (2R, 3R,11bR)-3-isobutyl-9,10-dimethoxy-1,3,4,6,7,11b-hexahydro-2H-pyrido[2,1-a]isoquinolin-2-yl ester]
- clinical observations [4]: partially closed eyes (ptosis) (in all monkeys), decreased activity (in ⅔ monkeys), and salivation (in 1 monkey)
- increase in [^11C]-PHNO ΔBPND [5]: 21-44% and 20-40%
- Adverse events [6]: consistent with the known safety and tolerability profile of valbenazine
